Source: ChEMBL document CHEMBL1201862, “PubChem BioAssay data set” (2004)
Calls of active or inactive are those of the source.

How the values were obtained:
[1] = molecular target: Mitochondrial peptide methionine sulfoxide reductase (Bos taurus, UniProt P54149); test: Absorbance-based biochemical high throughput dose response assay for activators of Methionine sulfoxide reductase A (MsrA).; assay type: functional
Large T antigen = Large T antigen (Simian virus 40, UniProt P03070); assay type: functional, Betapolyomavirus macacae;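 also: Confirmatory-stage PubChem screen for compounds that inhibit SV40 T antigen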
Sequence of Large T antigen (P03070 whole entry): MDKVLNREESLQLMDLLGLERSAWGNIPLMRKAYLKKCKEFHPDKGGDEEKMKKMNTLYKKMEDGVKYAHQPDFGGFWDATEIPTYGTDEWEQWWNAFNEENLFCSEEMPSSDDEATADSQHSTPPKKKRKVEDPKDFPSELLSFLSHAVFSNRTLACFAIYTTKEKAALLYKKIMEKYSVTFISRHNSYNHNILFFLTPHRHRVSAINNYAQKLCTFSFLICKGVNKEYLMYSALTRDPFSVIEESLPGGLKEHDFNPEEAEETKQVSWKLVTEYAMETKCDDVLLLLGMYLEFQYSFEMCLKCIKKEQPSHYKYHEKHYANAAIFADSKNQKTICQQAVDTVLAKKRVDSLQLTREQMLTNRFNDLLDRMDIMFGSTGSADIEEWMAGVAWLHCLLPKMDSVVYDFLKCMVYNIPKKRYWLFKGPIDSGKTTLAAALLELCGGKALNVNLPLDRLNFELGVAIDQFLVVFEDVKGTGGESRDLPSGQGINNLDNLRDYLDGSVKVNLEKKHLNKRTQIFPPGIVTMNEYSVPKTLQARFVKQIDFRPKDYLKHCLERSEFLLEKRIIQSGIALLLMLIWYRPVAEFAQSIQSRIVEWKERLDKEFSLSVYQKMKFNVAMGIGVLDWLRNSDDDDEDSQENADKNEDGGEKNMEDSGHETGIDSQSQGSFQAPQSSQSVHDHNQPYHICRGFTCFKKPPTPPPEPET

[2] = molecular target: DNA dC->dU-editing enzyme APOBEC-3A (Homo sapiens, UniProt P31941); test: APOBEC3A DNA deaminase inhibitors, dose response, biochemical (AID 504722); assay type: functional
Sequence of DNA dC->dU-editing enzyme APOBEC-3A (P31941 whole entry): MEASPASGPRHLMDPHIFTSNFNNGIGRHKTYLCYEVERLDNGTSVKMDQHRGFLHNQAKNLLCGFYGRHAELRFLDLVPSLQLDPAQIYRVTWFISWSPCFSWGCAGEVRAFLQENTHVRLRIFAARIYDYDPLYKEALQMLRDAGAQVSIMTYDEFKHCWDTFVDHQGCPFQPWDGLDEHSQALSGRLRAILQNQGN

[3] = molecular target: DNA dC->dU-editing enzyme APOBEC-3G (Homo sapiens, UniProt Q9HC16); test: Dose Response confirmation of small molecule APOBEC3G DNA Deaminase Inhibitors via a fluorescence-based single-stranded DNA deaminase assay. [Related pubchem assays (depositor defined):AID493012, AID493028]; assay type: functional
Sequence of DNA dC->dU-editing enzyme APOBEC-3G (Q9HC16 whole entry): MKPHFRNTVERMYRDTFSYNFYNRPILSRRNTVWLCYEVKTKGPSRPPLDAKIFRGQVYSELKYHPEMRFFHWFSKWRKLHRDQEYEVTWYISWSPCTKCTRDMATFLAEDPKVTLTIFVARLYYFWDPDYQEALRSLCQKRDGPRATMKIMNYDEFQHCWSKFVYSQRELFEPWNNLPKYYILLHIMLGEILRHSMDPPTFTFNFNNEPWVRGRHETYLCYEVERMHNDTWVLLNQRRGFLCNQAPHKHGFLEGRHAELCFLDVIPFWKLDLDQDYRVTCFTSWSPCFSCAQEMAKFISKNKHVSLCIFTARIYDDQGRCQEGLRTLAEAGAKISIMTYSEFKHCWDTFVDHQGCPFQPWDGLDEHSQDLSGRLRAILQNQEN

[4] = molecular target: Glucose-6-phosphate 1-dehydrogenase (Homo sapiens, UniProt P11413); test: human G6PD enzyme inhibitors, dose response, selectivity assay for P. falciparum G6PD inhibitor project, biochemical, fluorescence (AID 504792); assay type: functional
Sequence of Glucose-6-phosphate 1-dehydrogenase (P11413 whole entry): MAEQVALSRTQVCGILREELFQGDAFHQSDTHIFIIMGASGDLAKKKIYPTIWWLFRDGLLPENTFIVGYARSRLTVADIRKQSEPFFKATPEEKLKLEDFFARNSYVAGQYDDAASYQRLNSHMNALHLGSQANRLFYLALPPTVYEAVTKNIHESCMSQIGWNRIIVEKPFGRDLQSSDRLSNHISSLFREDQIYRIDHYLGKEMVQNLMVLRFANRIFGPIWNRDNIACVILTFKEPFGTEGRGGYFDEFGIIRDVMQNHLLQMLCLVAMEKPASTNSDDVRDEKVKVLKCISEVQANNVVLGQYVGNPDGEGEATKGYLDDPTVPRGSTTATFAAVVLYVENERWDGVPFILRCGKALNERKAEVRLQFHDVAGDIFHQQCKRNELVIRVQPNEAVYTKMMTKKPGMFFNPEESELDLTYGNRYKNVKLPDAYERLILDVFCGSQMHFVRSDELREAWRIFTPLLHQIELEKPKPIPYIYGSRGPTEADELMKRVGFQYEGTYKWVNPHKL

[5] = HepG2 cell cytotoxicity, dose response, cytotoxicity control for Shn3 inhibitor project, CellTiter-Glo, cherry-picked (AID 624134); assay type: functional, cell-based
[6] = Shn3 3'UTR reporter inhibitors, dose response, cell-based, Clone20 osteoblasts, firefly luciferase, cherry-picked (AID 624132); assay type: functional;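 also: firefly luciferase luminescence from reporter carrying the Shn3 3'UTR in osteoblasts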
Protein Wnt-3a = Protein Wnt-3a (Mus musculus, UniProt P27467); test: Wnt3a-driven reporter signaling inhibition, dose response, selectivity assay for Gli-SUFU antagonist project, Wnt-LIGHT cells, luminescence (AID 651570); assay type: functional; conditions: read-out: IC50_Mean;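 also: Wnt-LIGHT reporter cells stimulated with conditioned medium from Wnt3a-producing cells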
Sequence of Protein Wnt-3a (P27467 whole entry): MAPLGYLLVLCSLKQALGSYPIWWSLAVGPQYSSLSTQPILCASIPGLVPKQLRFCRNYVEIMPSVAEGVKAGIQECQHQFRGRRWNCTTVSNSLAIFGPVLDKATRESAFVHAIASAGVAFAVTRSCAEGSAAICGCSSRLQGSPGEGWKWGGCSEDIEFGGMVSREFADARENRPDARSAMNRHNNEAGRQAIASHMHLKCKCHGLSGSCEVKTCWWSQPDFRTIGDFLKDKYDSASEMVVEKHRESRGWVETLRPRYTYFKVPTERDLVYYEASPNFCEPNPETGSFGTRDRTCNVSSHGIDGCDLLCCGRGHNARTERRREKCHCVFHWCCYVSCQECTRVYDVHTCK

[7] = Luminescence Cell-Based Dose Response HTS to Identify Inhibitors of 5'UTR Stem-Loop Driven Prion Protein mRNA Translation in H4 Neuroglioblastoma Cells. [Related pubchem assays: 1827 (Project Summary), 1813 (Primary HTS)]; assay type: functional
BJ [8] = test: cells; assay type: functional, cell-based; conditions: Homo sapiens
[9] = inhibitors of firefly luciferase expression or activity, dose response, H4 neuroglioma cells, luminescence (AID 1990); assay type: functional, cell-based
BJ [10] = test: cytotoxicity toward BJ-TERT-LT-ST fibroblasts, dose response, cell-based, RAS-independent, luminescence (AID 1935); assay type: functional; conditions: Homo sapiens;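 also: BJ fibroblasts immortalized with TERT plus LT and ST oncogenes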
BJ [11] = test: cytotoxicity toward Ras-transformed BJeLR fibroblasts, dose response, cell-based, alamar blue fluorescence, cherrypicked samples (AID 2631); assay type: functional; conditions: Homo sapiens;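 also: confirmatory dose-response assay in RAS-dependent BJ fibroblasts engineered with TERT, LT and ST, with cytotoxicity read by fluorescence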
INS1 = test: beta cell apoptosis inhibitors, cytokine rescue, dose response, luminescence, retest (AID 449756); assay type: functional, cell-based; conditions: Rattus norvegicus;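 also: cell death triggered by IL-1 beta plus TNF-alpha plus IFN-gamma mixture; protective hits raise ATP signal compared with cytokine alone wells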
[12] = cytotoxicity toward DRD oncogenic fibroblasts, dose response, cell-based, non-viral oncogenic, luminescence (AID 1934); assay type: functional; conditions: Homo sapiens
[13] = cytotoxicity in HEK-293T cells, dose response, cytotoxicity control for BCR NF-kB inhibitor project, luminescence, B-cell screen hits (AID 489021); assay type: functional, cell-based;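 also: HEK-293T cells carrying an NF-kB luciferase reporter; cells exposed to compound for about 14 hours before viability readout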
BJ [14] = test: cytotoxicity toward BJ-TERT fibroblasts, dose response, cell-based, RAS-independent, luminescence (AID 1933); assay type: functional; conditions: Homo sapiens
[15] = inhibitors of SNCA 5'UTR-driven reporter translation, confirmation, H4 neuroglioma cells, luminescence (AID 1988); assay type: functional, cell-based
[16] = microbe, parasite or virus in culture; assay type: functional; conditions: Mycobacterium tuberculosis
[17] = molecular target: Disintegrin and metalloproteinase domain-containing protein 17 (Homo sapiens, UniProt P78536); test: exosite inhibitors of ADAM17, dose response, biochemical (AID 743260)
Sequence of Disintegrin and metalloproteinase domain-containing protein 17 (P78536 whole entry, the tested form may be a part): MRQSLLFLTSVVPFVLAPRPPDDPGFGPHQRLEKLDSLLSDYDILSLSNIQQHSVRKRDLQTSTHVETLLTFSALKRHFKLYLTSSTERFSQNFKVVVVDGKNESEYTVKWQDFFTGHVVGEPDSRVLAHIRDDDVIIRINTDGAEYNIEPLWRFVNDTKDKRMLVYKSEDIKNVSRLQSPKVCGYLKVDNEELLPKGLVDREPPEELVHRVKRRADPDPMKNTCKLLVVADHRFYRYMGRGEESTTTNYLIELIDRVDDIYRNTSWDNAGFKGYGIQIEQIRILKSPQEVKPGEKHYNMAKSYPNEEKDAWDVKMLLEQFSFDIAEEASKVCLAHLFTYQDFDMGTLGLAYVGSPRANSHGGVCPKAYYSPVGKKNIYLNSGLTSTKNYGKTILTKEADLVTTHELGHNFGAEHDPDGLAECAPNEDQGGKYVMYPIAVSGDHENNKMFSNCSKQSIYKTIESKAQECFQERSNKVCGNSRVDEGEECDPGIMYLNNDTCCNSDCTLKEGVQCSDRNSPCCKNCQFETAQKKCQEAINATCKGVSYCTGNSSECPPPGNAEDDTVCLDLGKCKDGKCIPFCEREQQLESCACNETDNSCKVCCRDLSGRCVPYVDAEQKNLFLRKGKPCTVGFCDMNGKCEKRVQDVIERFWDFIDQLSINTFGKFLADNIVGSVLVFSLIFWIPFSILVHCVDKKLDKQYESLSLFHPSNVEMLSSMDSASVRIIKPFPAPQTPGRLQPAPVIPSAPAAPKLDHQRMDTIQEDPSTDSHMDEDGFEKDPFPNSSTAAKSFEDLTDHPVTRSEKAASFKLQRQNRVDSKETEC

[18] = ADAM10 protease inhibitors, dose response, selectivity assay for ADAM17 exosite inhibitor project, biochemical, FRET peptide substrate, recombinant human ADAM10 (AID 743259);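 also: ADAM10 enzyme cleaving a FRET peptide substrate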
cells = assay type: functional, cell-based
[19] = molecular target: Nuclear receptor subfamily 0 group B member 1 (Homo sapiens, UniProt P51843); assay type: functional, cell-based;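 also: HEK293T cells transfected with SF-1 and DAX-1 plus StAR promoter luciferase reporter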
Sequence of Nuclear receptor subfamily 0 group B member 1 (P51843 whole entry): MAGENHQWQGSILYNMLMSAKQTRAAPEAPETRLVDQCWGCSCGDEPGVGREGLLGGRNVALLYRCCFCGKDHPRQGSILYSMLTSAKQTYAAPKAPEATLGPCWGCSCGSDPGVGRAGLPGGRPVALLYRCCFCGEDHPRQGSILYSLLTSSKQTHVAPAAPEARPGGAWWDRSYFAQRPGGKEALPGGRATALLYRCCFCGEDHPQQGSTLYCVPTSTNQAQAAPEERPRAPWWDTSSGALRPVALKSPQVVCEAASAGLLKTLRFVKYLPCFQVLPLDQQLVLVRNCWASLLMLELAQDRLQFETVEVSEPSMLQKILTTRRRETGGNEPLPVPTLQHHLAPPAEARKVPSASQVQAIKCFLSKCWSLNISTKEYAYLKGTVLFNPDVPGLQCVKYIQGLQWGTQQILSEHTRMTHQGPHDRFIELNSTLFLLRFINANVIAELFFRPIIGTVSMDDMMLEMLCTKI

[20] = molecular target: T1, Rac GTPase-activating protein 1 (Homo sapiens, UniProt Q9H0H5); test: MgcRacGAP GTPase-activating activity inhibitors, confirmation, biochemical, ADP Hunter fluorescence, primary and confirmatory (AID 624330); assay type: functional
T1 sequence (Q9H0H5 whole entry): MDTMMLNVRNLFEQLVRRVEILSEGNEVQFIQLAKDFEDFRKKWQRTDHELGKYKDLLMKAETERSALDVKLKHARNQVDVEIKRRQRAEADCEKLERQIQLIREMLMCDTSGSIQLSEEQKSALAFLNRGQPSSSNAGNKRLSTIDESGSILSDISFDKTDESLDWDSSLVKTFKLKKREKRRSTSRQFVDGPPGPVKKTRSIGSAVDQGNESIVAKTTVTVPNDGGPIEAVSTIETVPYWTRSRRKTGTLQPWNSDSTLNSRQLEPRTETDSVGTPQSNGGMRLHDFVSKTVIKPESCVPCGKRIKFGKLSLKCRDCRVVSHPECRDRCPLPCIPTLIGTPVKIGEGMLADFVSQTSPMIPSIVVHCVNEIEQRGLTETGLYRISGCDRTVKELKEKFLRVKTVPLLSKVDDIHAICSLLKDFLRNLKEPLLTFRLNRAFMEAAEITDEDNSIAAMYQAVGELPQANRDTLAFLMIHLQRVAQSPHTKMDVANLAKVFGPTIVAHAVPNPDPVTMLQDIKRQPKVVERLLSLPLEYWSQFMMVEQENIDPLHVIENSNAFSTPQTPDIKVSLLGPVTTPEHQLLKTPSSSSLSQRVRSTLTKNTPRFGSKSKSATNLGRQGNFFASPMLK

[21] = molecular target: T2, Sentrin-specific protease 1 (Homo sapiens, UniProt Q9P0U3); test: Dose response confirmation of small molecule inhibitors of the catalytic domain of the SUMO protease, SENP1 in a FRET assay.; assay type: functional; conditions: read-out: IC50_Mean
T2 sequence (Q9P0U3 whole entry): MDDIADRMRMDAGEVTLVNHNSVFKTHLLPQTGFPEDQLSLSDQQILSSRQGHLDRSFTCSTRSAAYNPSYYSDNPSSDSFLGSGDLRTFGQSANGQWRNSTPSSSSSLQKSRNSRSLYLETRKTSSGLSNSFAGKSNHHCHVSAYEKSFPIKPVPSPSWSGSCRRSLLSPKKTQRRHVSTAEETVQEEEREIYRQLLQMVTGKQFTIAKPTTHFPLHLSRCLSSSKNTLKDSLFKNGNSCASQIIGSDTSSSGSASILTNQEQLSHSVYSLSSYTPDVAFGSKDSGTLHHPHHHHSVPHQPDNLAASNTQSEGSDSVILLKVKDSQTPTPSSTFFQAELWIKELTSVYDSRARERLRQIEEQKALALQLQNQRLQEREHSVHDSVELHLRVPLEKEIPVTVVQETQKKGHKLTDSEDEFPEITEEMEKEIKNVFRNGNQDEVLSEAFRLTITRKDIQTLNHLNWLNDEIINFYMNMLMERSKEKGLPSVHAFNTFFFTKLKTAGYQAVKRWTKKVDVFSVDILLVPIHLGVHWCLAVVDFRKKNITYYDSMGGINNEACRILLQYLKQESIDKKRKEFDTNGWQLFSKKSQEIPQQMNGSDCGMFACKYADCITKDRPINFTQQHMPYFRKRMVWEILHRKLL

[22] = molecular target: T2, Sentrin-specific protease 1; test: potency of human SENP1 inhibitors, dose response, biochemical, kinetic FRET (AID 651697); assay type: functional; conditions: read-out: IC50_Mean
Streptococcus = test: Group A Streptococcus viability loss, dose response, counter-screen for streptokinase expression inhibitor project, luminescence, BacTiterGlo (AID 1915); assay type: functional, organism-based;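 also: potency for reduction of bacterial viability or growth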
[23] = test system: Streptococcus sp. 'group A'; test: growth inhibition of control SK(-) GAS strain, dose response, counter-screen for streptokinase expression inhibitor project, luminescence, kanamycin, BacTiterGlo, confirmation (AID 1900); assay type: functional, organism-based
[24] = molecular target: T3, Probable nicotinate-nucleotide adenylyltransferase (Staphylococcus aureus (strain N315), UniProt P65502); assay type: functional, Staphylococcus aureus subsp. aureus N315; conditions: read-out: IC50_Mean;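 as to IC50 Mean: confirmatory dose-response retesting of NadD inhibitor hits first found in an ultra-high-throughput screen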
T3 sequence (P65502 whole entry): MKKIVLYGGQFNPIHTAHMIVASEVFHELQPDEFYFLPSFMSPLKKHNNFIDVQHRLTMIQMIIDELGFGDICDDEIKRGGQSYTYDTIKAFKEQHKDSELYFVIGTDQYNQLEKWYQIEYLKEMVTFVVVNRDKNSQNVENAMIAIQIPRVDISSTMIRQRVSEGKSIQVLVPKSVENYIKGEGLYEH

[25] = molecular target: T3, Probable nicotinate-nucleotide adenylyltransferase; assay type: functional, Staphylococcus aureus subsp. aureus N315
[26] = miR-122 activators in hepatoma reporter cells, dose response, cell-based, Huh7 psiCHECK-miR122, Renilla luciferase, cherry-picked (AID 651956); assay type: functional;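 also: huh7 hepatoma cells stably carrying a psiCHECK-2 miR-122 sensor plasmid; renilla luciferase signal reporting endogenous miR-122 activity after 48 h compound exposure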
[27] = inhibitors of HIV Env-driven cell fusion, dose response, cherry-pick (AID 652057); assay type: functional, cell-based
[28] = off-target signal loss in HeLa-CEM21 co-culture – HeLa F-luc CTL cells, cherry-picked, counter-screen for HIV-1 Env fusion inhibitor project, dose response (AID 652040); assay type: functional, cell-based;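 also: potency for signal decrease marking cytotoxic or nonspecific inhibition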
[29] = inhibitors of clade B AD8 Env fusion, dose response, cell-based, cherry-pick (AID 652062); assay type: functional;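 also: luciferase signal from cell-cell fusion driven by HIV-1 clade B AD8 Env; potency is for inhibitors of fusion seen as a drop in luminescence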
[30] = ZM109 Env clade C HIV-1 fusion inhibitors, dose response, HeLa effector, CEM target cells, luciferase, cherry-pick (AID 652058); assay type: functional, cell-based
[31] = CEM21 lymphoblast cell cytotoxicity, dose response, cytotoxicity control for viral fusion inhibitor project, CellTiter-Glo luminescence, cherry-picked (AID 652042); assay type: functional, cell-based;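 also: potency for signal decrease meaning cytotoxicity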
[32] = Fluorescence-based cell-based high throughput dose response assay for inhibitors of the interaction of nucleotide-binding oligomerization domain containing 2 (NOD2) and the receptor-interacting serine-threonine kinase 2 (RIPK2).; assay type: functional; conditions: Homo sapiens
[33] = inhibitors of PGC1a acetylation in cells, dose response, cell-based, cherry-picked samples (AID 720514); assay type: functional;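 also: potency may reflect raised or lowered acetylation signal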
Beta Lactamase = Beta Lactamase (Pseudomonas aeruginosa, UniProt Q932Y6); test: beta-lactamase reporter inhibitor potency, dose response, artefact control for NOD2-RIPK2 interaction inhibitor project, BLA reporter cells, FRET fluorescence (AID 651552); assay type: functional, cell-based
Sequence of Beta Lactamase (Q932Y6 whole entry): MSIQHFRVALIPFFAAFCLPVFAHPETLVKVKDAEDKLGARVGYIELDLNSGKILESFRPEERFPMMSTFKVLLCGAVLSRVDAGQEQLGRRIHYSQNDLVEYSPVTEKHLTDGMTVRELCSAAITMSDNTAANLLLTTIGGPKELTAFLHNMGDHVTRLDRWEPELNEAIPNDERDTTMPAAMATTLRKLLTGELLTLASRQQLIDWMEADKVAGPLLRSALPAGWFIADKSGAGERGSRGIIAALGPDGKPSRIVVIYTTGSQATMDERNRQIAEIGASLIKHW

[34] = control 3'UTR Renilla luciferase suppression, dose response, counter-screen for Shn3 inhibitor project, cell-based, Clone20-Shn3RL, cherry-picked (AID 624133); assay type: functional

Sequence of Mitochondrial peptide methionine sulfoxide reductase (P54149 whole entry): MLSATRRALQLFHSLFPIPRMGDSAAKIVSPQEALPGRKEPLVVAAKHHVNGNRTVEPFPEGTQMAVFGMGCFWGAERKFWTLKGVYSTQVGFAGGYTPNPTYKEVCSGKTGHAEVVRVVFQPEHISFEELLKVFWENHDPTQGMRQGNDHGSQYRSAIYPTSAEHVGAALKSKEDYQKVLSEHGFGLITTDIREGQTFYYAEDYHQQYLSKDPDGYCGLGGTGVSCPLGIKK

In the case of c1ccc(SSc2ccccn2)nc1, the EC50 [1] is reported as > 104 µM (inactive), the IC50 (Large T antigen) is reported as > 100 µM (active) and the IC50 [2] is reported as > 100 µM (inactive). For the same molecule, the IC50 [3] was 3.88 µM (active) and the IC50 [4] was > 80 µM (inactive).

For COc1cc(NS(=O)(=O)c2ccc(C)cc2C)cc(OC)c1OC, the AC50 [5] was 5.37 µM (active), the AC50 [6] was 4.95 µM (active) and the IC50 (Protein Wnt-3a) was 1.38 µM (active).

In the case of CC1CC(C)CN(S(=O)(=O)c2ccc(C(=O)NCCCn3ccnc3)cc2)C1 (stereo not drawn), the EC50 [7] is reported as 0.873 µM (active), the EC50 (BJ [8]) is reported as 5.76 µM (inconclusive) and the EC50 [9] is reported as 0.527 µM (active). The EC50 (BJ [10]) was 4.2 µM (inconclusive), the EC50 (BJ [11]) was 5.61 µM (active) and the AC50 (INS1) was 0.437 µM (active). The EC50 [12] was 10 µM (inconclusive), the IC50 [13] was > 80 µM (inactive) and the EC50 (BJ [14]) was > 150 µM (not active). The EC50 [15] was 0.163 µM (active).

For O=C(Nc1ccccc1)C1=C[C@@H](C2CCCCC2)C[C@@H](OCc2ccc(CO)cc2)O1, the CC50 [16] was > 40 µM (active), the IC50 [17] was > 69.5 µM (inactive) and the IC50 [18] was 21.8 µM (inactive).

In the case of COc1ccc(C(=O)CSc2nccn2C)c(OC)c1, the IC50 (cells) is reported as > 67.5 µM (inactive) and the IC50 [19] is reported as > 67.5 µM (inactive).

With COc1ccccc1NC(CC(=O)c1ccccc1)C(=O)OCC(=O)c1ccc(Br)cc1 (stereo not drawn) the IC50 (cells) was > 67.5 µM (inactive) and the IC50 [19] was > 0.278 µM (active).

For CCOc1cc(/C=C2\SC(=O)N=C2N)ccc1O, the IC50 (Large T antigen) was 4.73 µM (active), the IC50 [20] was 13 µM (active) and the IC50 [21] was 18.2 µM (active). The IC50 [22] was 10.9 µM (active).

In the case of CC(OC(=O)CCCCCN=C1NS(=O)(=O)c2ccccc21)C(=O)Nc1cc(Cl)cc(Cl)c1 (stereo not drawn), the IC50 [17] is reported as > 69.5 µM (inactive).

With CC(OC(=O)CCCCCNC1=NS(=O)(=O)c2ccccc21)C(=O)Nc1cc(Cl)cc(Cl)c1 (stereo not drawn) the IC50 [18] was 50 µM (inactive).

With N=C1SC(c2ccccc2)C(=O)N1c1ncc(Cc2ccccc2Cl)s1 (stereo not drawn) the EC50 (Streptococcus) was 3.47 µM (active), the EC50 [23] was 0.249 µM (active) and the IC50 [24] was 16 µM (active). For the same molecule, the IC50 [25] was 4.35 µM (active).

In the case of COc1ccc(S(=O)(=O)Nc2cc(C)cc(C)n2)c2ccccc12, the AC50 [26] is reported as 13.4 µM (active).

In the case of O=[N+]([O-])c1ccc(C=NNc2ccccc2)cc1, the IC50 [21] is reported as 7.2 µM (active) and the IC50 [22] is reported as 21.5 µM (inactive).

In the case of CC1(C)Cc2ccccc2C(/C(=N\Nc2cccc(Cl)c2)C(N)=O)=N1, the AC50 [27] is reported as 2.68 µM (active), the AC50 [28] is reported as 35.5 µM (active) and the AC50 [29] is reported as 8.02 µM (active). For the same molecule, the AC50 [30] was 2.69 µM (active) and the AC50 [31] was 49.5 µM (active).

With COc1ccc(CC2NCC(O)C2OC(C)=O)cc1 (stereo not drawn) the IC50 [32] was 49.7 µM (inactive), the AC50 [33] was 0.308 µM (active) and the AC50 [6] was < 0.26 µM (active). For the same molecule, the IC50 (Beta Lactamase) was 49.7 µM (inactive) and the AC50 [34] was 1.09 µM (active).
